Common to all, as to experiment: AUC of viability dose-response curve (% viability x log10 dose units); higher = less sensitive
Common to all, as to conditions: 48 h

The subject of one test is P12-Ichikawa. In a few lines:
(§1)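 Library compounds in DMSO were applied for 48 h at 37°C at 11 threefold doses (47 μM to 0.79 nM) to medium-adapted leukemia cells in 1536-well plates holding 500 or 1000 cells/well. Luminescence from CellTiter-Glo One was normalised plate by plate against DMSO and cell-free wells. Area under the curve came from trapezoidal integration of a log-logistic fit, after scaling curves that rose above full viability and discarding those that failed quality control. The fit had four parameters and used log10 doses.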

Another test concerns NOMO1. In a few lines:
as §1

The test system of a further test is SEM cells. In a few lines:
as §1

The mark [1] stands for this setting: RPMI 5 mM glucose + 10% dialyzed FBS.

Take `O=C(O)C1=NC(C(=O)O)CC(/C=C/N2c3cc(O)c(OC4OC(CO)C(O)C(O)C4O)cc3CC2C(=O)O)=C1` (stereo unspecified): the “AUC of viability dose-response curve” value with P12-Ichikawa (HPLM + 10% dialyzed FBS) stood at 463; in the test with P12-Ichikawa (RPMI 5 mM glucose + 10% FBS), 450; with P12-Ichikawa (setting [1]), 462; in the test on NOMO1 (HPLM + 10% dialyzed FBS), 462; in the test with NOMO1 (RPMI 5 mM glucose + 10% FBS), 465; with NOMO1 (setting [1]) it was 421. In addition, the “AUC of viability dose-response curve” value in the test on SEM cells (HPLM + 10% dialyzed FBS) stood at 467; in the test with SEM cells (RPMI 5 mM glucose + 10% FBS), 466; in the test on SEM cells (setting [1]), 461.
Consider `CCC[C@H]1C[C@H](C(=O)N[C@@H]([C@@H]2O[C@@H](SC)[C@@H](O)[C@@H](O)[C@H]2O)[C@H](C)Cl)N(C)C1`, for which the “AUC of viability dose-response curve” value in the test on P12-Ichikawa (HPLM + 10% dialyzed FBS) stood at 465; in the test on P12-Ichikawa (RPMI 5 mM glucose + 10% FBS) it was 455; with P12-Ichikawa (setting [1]), 467; in the test with NOMO1 (HPLM + 10% dialyzed FBS) it was 459; in the test on NOMO1 (RPMI 5 mM glucose + 10% FBS) it was 430; in the test with NOMO1 (setting [1]), 439. In addition, the “AUC of viability dose-response curve” value in the test on SEM cells (HPLM + 10% dialyzed FBS) was determined as 447; in the test with SEM cells (RPMI 5 mM glucose + 10% FBS), 450; in the test with SEM cells (setting [1]), 447.
In the case of `COc1ccc(C(C)=O)c(O)c1`, the “AUC of viability dose-response curve” value in the test with P12-Ichikawa (HPLM + 10% dialyzed FBS) came to 422; in the test with P12-Ichikawa (RPMI 5 mM glucose + 10% FBS), 421; in the test with P12-Ichikawa (setting [1]), 423; in the test on NOMO1 (HPLM + 10% dialyzed FBS) it was 350; with NOMO1 (RPMI 5 mM glucose + 10% FBS), 366; in the test with NOMO1 (setting [1]) it was 381. Besides, the entries for the “AUC of viability dose-response curve” value in the test on SEM cells (HPLM + 10% dialyzed FBS), with SEM cells (RPMI 5 mM glucose + 10% FBS) and in the test on SEM cells (setting [1]) were 439, 450 and 462, respectively.
With `OC[C@H]1OCC(O1)[N@@]2C=CC(N)=NC2=O` (stereo partly specified), the “AUC of viability dose-response curve” value in the test on P12-Ichikawa (HPLM + 10% dialyzed FBS) is 458; with P12-Ichikawa (RPMI 5 mM glucose + 10% FBS), 458; with P12-Ichikawa (setting [1]), 446; in the test with NOMO1 (HPLM + 10% dialyzed FBS) it was 465; in the test with NOMO1 (RPMI 5 mM glucose + 10% FBS) it was 463; with NOMO1 (setting [1]), 475.
Take `FC1=CC=C(SC/2=N/N3\C=N/C(=O)/C(=C3/C=C2)C4=C(Cl)C=CC=C4Cl)C(=C1)F`: the “AUC of viability dose-response curve” value with P12-Ichikawa (HPLM + 10% dialyzed FBS) came to 454; in the test on P12-Ichikawa (RPMI 5 mM glucose + 10% FBS), 436; in the test with P12-Ichikawa (setting [1]), 452; in the test with NOMO1 (HPLM + 10% dialyzed FBS) it was 457; in the test on NOMO1 (RPMI 5 mM glucose + 10% FBS), 463; in the test on NOMO1 (setting [1]) it was 466. For the same compound, the entries for the “AUC of viability dose-response curve” value in the test with SEM cells (HPLM + 10% dialyzed FBS), with SEM cells (RPMI 5 mM glucose + 10% FBS) and with SEM cells (setting [1]) were 409, 435 and 398, respectively.
Consider `CNc1nccc(-c2cccnc2Oc2cc(C(=O)Nc3cccc(C(F)(F)F)c3)ccc2C)n1`, for which the “AUC of viability dose-response curve” value in the test on P12-Ichikawa (HPLM + 10% dialyzed FBS) was determined as 467; in the test on P12-Ichikawa (RPMI 5 mM glucose + 10% FBS), 462; with P12-Ichikawa (setting [1]), 468; in the test on NOMO1 (HPLM + 10% dialyzed FBS) it was 458; in the test on NOMO1 (RPMI 5 mM glucose + 10% FBS), 458; in the test on NOMO1 (setting [1]) it was 461. The entries for the “AUC of viability dose-response curve” value in the test with SEM cells (HPLM + 10% dialyzed FBS), in the test on SEM cells (RPMI 5 mM glucose + 10% FBS) and in the test on SEM cells (setting [1]) were 466, 460 and 461, respectively.
As to `O=C(NC[C@H](O)CO)c1ccncc1Nc1ccc(I)cc1F`, the “AUC of viability dose-response curve” value came out at 467 in the test on P12-Ichikawa (HPLM + 10% dialyzed FBS); 437 in the test with P12-Ichikawa (RPMI 5 mM glucose + 10% FBS); 464 in the test on P12-Ichikawa (setting [1]); 328 with NOMO1 (HPLM + 10% dialyzed FBS); 290 in the test with NOMO1 (RPMI 5 mM glucose + 10% FBS); 309 in the test with NOMO1 (setting [1]). The “AUC of viability dose-response curve” value in the test with SEM cells (HPLM + 10% dialyzed FBS) came to 426; in the test on SEM cells (RPMI 5 mM glucose + 10% FBS) it was 376; in the test on SEM cells (setting [1]), 378.
For the compound `C=CC(=O)N1CCC[C@@H](n2nc(-c3ccc(Oc4ccccc4)cc3)c3c(N)ncnc32)C1`, the “AUC of viability dose-response curve” value was 414 in the test with P12-Ichikawa (HPLM + 10% dialyzed FBS); 458 in the test with P12-Ichikawa (RPMI 5 mM glucose + 10% FBS); 452 in the test on P12-Ichikawa (setting [1]); 462 with NOMO1 (HPLM + 10% dialyzed FBS); 446 with NOMO1 (RPMI 5 mM glucose + 10% FBS); 467 with NOMO1 (setting [1]). The “AUC of viability dose-response curve” value with SEM cells (HPLM + 10% dialyzed FBS) came out at 456; in the test with SEM cells (RPMI 5 mM glucose + 10% FBS), 443; in the test on SEM cells (setting [1]) it was 424.
`CC(C)CC(=O)N[C@H](C(=O)N[C@H](C(=O)N[C@@H](CC(C)C)[C@@H](O)CC(=O)N[C@@H](C)C(=O)N[C@@H](CC(C)C)[C@@H](O)CC(=O)O)C(C)C)C(C)C`: the “AUC of viability dose-response curve” value with P12-Ichikawa (HPLM + 10% dialyzed FBS) was determined as 471; with P12-Ichikawa (RPMI 5 mM glucose + 10% FBS) it was 476; in the test on P12-Ichikawa (setting [1]), 477; in the test on NOMO1 (HPLM + 10% dialyzed FBS) it was 450; with NOMO1 (RPMI 5 mM glucose + 10% FBS), 445; in the test on NOMO1 (setting [1]), 467. The “AUC of viability dose-response curve” value is 443 in the test with SEM cells (HPLM + 10% dialyzed FBS), 435 with SEM cells (RPMI 5 mM glucose + 10% FBS) and 437 in the test on SEM cells (setting [1]).
With `C/C=C1\C2C=C(C)CC1(N)c1ccc(=O)[nH]c1C2` (stereo unspecified), the “AUC of viability dose-response curve” value in the test on P12-Ichikawa (HPLM + 10% dialyzed FBS) turned out to be 471; with P12-Ichikawa (RPMI 5 mM glucose + 10% FBS), 447; with P12-Ichikawa (setting [1]) it was 442; in the test on NOMO1 (HPLM + 10% dialyzed FBS), 463; in the test with NOMO1 (RPMI 5 mM glucose + 10% FBS), 467; in the test on NOMO1 (setting [1]), 465. The “AUC of viability dose-response curve” value in the test with SEM cells (HPLM + 10% dialyzed FBS) is 442; in the test with SEM cells (RPMI 5 mM glucose + 10% FBS), 458; in the test on SEM cells (setting [1]), 463.
With `S=P(N1CC1)(N1CC1)N1CC1`, the “AUC of viability dose-response curve” value in the test with P12-Ichikawa (HPLM + 10% dialyzed FBS) amounted to 452; in the test with P12-Ichikawa (RPMI 5 mM glucose + 10% FBS), 470; in the test with P12-Ichikawa (setting [1]), 448; in the test on NOMO1 (HPLM + 10% dialyzed FBS) it was 468; with NOMO1 (RPMI 5 mM glucose + 10% FBS), 458; in the test on NOMO1 (setting [1]), 468. In addition, the “AUC of viability dose-response curve” value with SEM cells (HPLM + 10% dialyzed FBS) is 455; in the test with SEM cells (RPMI 5 mM glucose + 10% FBS) it was 446; in the test on SEM cells (setting [1]), 441.

Values taken from the supplement of paper PMC11451515.
